Laboratory results taken from patent publication US6399560B1, “Biocide and biocidal cloth containing a metal pyridinethione and additional biocide” (Novapharm Research (Australia) Pty Ltd., priority 1997, dated 2002).
Like-named read-outs stand apart in the source and are kept apart here.

Key:
[1] = system: gram negative bacteria; conditions: cited from earlier work
[2] = system: gram positive microorganisms; conditions: cited from earlier work
[3] = in vivo; cited from earlier work
[4] = system: Fish; conditions: in vivo; cited from earlier work
[5] = cited from earlier work
[6] = system: Pseudomonas Aeruginosa; test: Effect of biocide-impregnated fabric on Pseudomonas Aeruginosa population; format: cell-based; conditions: zinc pyridinethione 0.85%, dichlorophen 0.85%, combination 0.5% + 0.5% of dry fabric weight
Source text: A biocidal cloth according to the invention was subjected to a standard quantitative test for microorganisms, “Assessment of Antibacterial Finishes on Textile Materials”: Test Method AATCC 100-1993. This test is specifically designed for the assessment of the biocidal properties of fabric treatments. These treatments are designed to kill microorganisms within the fabric, rather than on surfaces which come into contact with the fabric.
The weights are given relative to the weight of dry fabric.

[7] = cited from earlier work; for Oxidising Agents: compatibility with oxidising agents; for Reducing Agents: compatibility with reducing agents
[8] = acute toxicity, cited from earlier work; for LD50 Subcut: subcutaneous

Compound | Effectiveness against gram negative [1] | Effectiveness against gram positive [2] | Teratogenicity [3] | Fish Toxicity [4] | Irritancy dermal ([5]; in vivo) | Irritancy eye ([5]; in vivo) | Change in bacterial population, DAY 1 (positive = increase, negative = decrease) [6] | Change in bacterial population, DAY 2 (positive = increase, negative = decrease) [6] | Oxidising Agents [7] | Reducing Agents [7] | LD 50 IV [8] | LD50 Dermal [8] | LD50 Oral [8] | LD50 Subcut [8] | Irritancy dermal ([5]; dermal / skin) | Irritancy dermal ([5]; dermal / skin, listed as zinc pyridinethione) | Irritancy eye ([5]; eye) | Irritancy eye ([5]; eye, listed as zinc pyridinethione)
Oc1ccc(Cl)cc1Cc1cc(Cl)ccc1O [DICHLOROPHEN, dichlorophen] | some grain negative activity | particularly effective | no effect | 23 mg/lt | Slight dermal | Moderate eye | +0.439 | +2.12 | incompatible | no effect | 17 mg/kg | 5000 mg/kg | 3300 mg/kg | >3000 mg/kg |  |  |  | 
Oc1cc(Cl)ccc1Oc1ccc(Cl)cc1Cl [Triclosan, triclosan] | some grain negative activity | particularly effective |  |  |  |  |  |  |  |  |  |  |  |  |  |  |  | 
zinc pyridinethione | limited effectiveness | effective | reduced wt |  |  |  | +0.845 | +0.35 | decomposes | decomposes | 10 mg/kg | 100 mg/kg | 160 mg/kg | 730 mg/kg | Moderate dermal | mildly irritating | Severe eye | severely so
